Calls of active or inactive are those of the source.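 Rule for the calls: active = half-maximal concentration for the rise in caspase light signal at or below ten times the top tested dose; inconclusive = flat fit between 30% and 70% activity, or unreliable curve fit; inactive = the rest.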
Test system: MEF A1-2A-BIM cells, caspase 3/7 luminescence, 3 h
Test: inducers of caspase signal in A1-dependent MEFs – cell-based, luminescence, retest, A1 inhibitor project, dose response (AID 2765)

SMILES | EC50
COc1cc(-c2cc(-c3ccccc3)nc(SCC(=O)Nc3nccs3)c2C#N)cc(OC)c1OC | > 35 µM (inactive)
Cc1c(C)c(C)c(C(=O)CCc2cccc(NC(=O)CCC(=O)O)c2)c(C)c1C | > 35 µM (inactive)
Cc1cc(C2C(C#N)=C(N)SC(N)=C2C#N)c(C)s1 | > 35 µM (inactive)
COc1ccc(C2(C(=O)NCCCN(C)C)CCOCC2)cc1 | > 35 µM (inactive)
CC(=O)c1ccc(N2CCN(S(=O)(=O)c3c(C(=O)N4CCCC4)c(C)n(C)c3C)CC2)cc1 | > 35 µM (inactive)
O=C(CCCCCn1c(=O)[nH]c2ccsc2c1=O)N1CCN(C2CCCCC2)CC1 | > 35 µM (inactive)
Cc1cc(C)cc(NC(=O)/C(C#N)=C/c2cn(CC(=O)NCc3ccco3)c3ccccc23)c1 | 4.65 µM
CSC[C@@H]1NC(=S)N(c2ccc(C)cc2)C1=O | > 35 µM (inactive)
CCOC(=O)CNC(=O)N1CCCC(CNS(=O)(=O)Cc2ccccc2)C1 (stereo not drawn) | > 35 µM (inactive)
O=S1(=O)C=C(Sc2nnc(-c3ccccc3)o2)c2ccccc21 | > 35 µM (inactive)
C=CCOc1c2ccc(C(=O)N(CC)c3ccc(OC)cc3)cc2nn1C | > 35 µM (inactive)
CC1COc2ccccc2N1C(=O)c1ccc(Cl)cc1 (stereo not drawn) | > 35 µM (inactive)
CCOc1nc2c(c(-c3cccs3)c1C#N)Cc1ccccc1-2 | > 35 µM (inactive)
Nc1cn(C2OC(CO)C(O)C2O)c(=O)[nH]c1=O (stereo not drawn) | > 35 µM (inactive)
O=C(NCc1ccc2c(c1)OCO2)C1CCN(c2ncccn2)CC1 | > 35 µM (inactive)
O=C(CSc1cccc[n+]1[O-])NC1CCCCC1 | > 35 µM (inactive)
Cc1cccc(N(C)C(=O)CCS(=O)(=O)c2cccc3nonc23)c1 | > 35 µM (inactive)
O=C(CBr)Nc1c2c(nn1-c1ccccc1)CSC2 | > 35 µM (inactive)
CC(=O)OCCCNc1cc(Sc2nc3ccccc3s2)c2nonc2c1[N+](=O)[O-] | > 35 µM (inactive)
O=C(c1cc(C2CC2)nn1-c1ccccc1)N1CCN(S(=O)(=O)c2cccc(F)c2)CC1 | > 35 µM (inactive)
COc1ccc(C(=O)Nc2ccc(NC(C)=O)cc2)cc1S(=O)(=O)N1CCCCC1C (stereo not drawn) | > 35 µM (inactive)
O=C(Oc1cccc(/C=N/Nc2nc(Nc3ccccc3)nc(N3CCOCC3)n2)c1)c1ccco1 | > 35 µM (inactive)
CC(C)(C)C(=O)CNS(=O)(=O)c1ccc(S(=O)(=O)NC2CC2)cc1 | > 35 µM (inactive)

SMILES | EC50
CC1=NNC(=O)/C1=C\c1cn(-c2ccccc2)nc1-c1cccs1 | 15.1 µM
NS(=O)(=O)c1ccc(CCNC(=O)c2ccc3c(c2)OCCO3)cc1 | > 35 µM (inactive)
CC1Cc2ccccc2N1C(=O)C1CCN(S(=O)(=O)Cc2ccccc2)CC1 (stereo not drawn) | > 35 µM (inactive)
CONC(=O)c1cc(OCC(F)(F)F)ccc1OCC(F)(F)F | > 35 µM (inactive)
COc1ccccc1N1C(=O)c2cccc3c(Cl)ccc(c23)C1=O | > 35 µM (inactive)
O=C(O)c1cc(-c2ccc(Cl)cc2)n(-c2cccc(Cl)c2)n1 | > 35 µM (inactive)
COC(=O)c1ccc2c(c1)C(C)(C)C(/C=C/c1ccc(O)cc1)=[N+]2C | 15.2 µM
COC(=O)N(NC(=O)C(O)(c1ccccc1)c1ccccc1)c1ccc(C)cc1 | > 35 µM (inactive)
CN(c1ccccc1C(=O)Nc1cccc(C(F)(F)F)c1)S(C)(=O)=O | > 35 µM (inactive)
CSc1nc(N)c(N=Nc2ccc([As](=O)(O)O)cc2)c(=O)[nH]1 | > 35 µM (inactive)
O=C(CC1CC2CCC1C2)N1CCN(S(=O)(=O)c2ccccc2C(F)(F)F)CC1 (stereo not drawn) | > 35 µM (inactive)
C=C1/C=C(\C)[C@](C)(O)C[C@H](O)CC(=O)[C@H](O)[C@@H](O)[C@H](C)C[C@H](C)OC(=O)/C(C)=C/CC/C=C/[C@@H]2O[C@H]2C[C@H](C)C1 | > 35 µM (inactive)
COC(=O)C1SCC2C(=O)N(Cc3ccc(Cl)cc3)CC(=O)N21 (stereo not drawn) | > 35 µM (inactive)
CC(C)NCC(O)c1ccc(NS(C)(=O)=O)cc1 (stereo not drawn) | > 35 µM (inactive)
Cc1cccc(C)c1OCc1nnc(SCC(=O)Nc2nccs2)n1-c1ccccc1 | > 35 µM (inactive)
CC(=O)c1ccc(S(=O)(=O)N2CCCCC2C(=O)O)cc1 (stereo not drawn) | > 35 µM (inactive)
O=C(CSc1nc2ncc(Br)cc2[nH]1)c1ccc([N+](=O)[O-])cc1 | > 35 µM (inactive)
CCOc1cc(C(=O)CSc2nnc(CNc3ccc(Cl)cc3)o2)ccc1NC(=O)CC | 16 µM
CCC(C)[C@@H](C(=O)NCC1CCC(C(=O)O)CC1)n1nnc2ccccc2c1=O (stereo partly drawn) | > 35 µM (inactive)
CN(CC(=O)Nc1ccc(F)cc1)C(=O)c1ccccc1OCc1ccc(F)cc1 | > 35 µM (inactive)
CCn1nnc(NC(=O)Cc2ccc(Cl)cc2)n1 | > 35 µM (inactive)
CCc1ccc(NC(=O)c2nc(S(=O)(=O)Cc3ccccc3)ncc2Cl)cc1 | > 35 µM (inactive)
CCc1cc(-c2[nH]ncc2-c2ccc(OC)cc2)c(O)cc1O | > 35 µM (inactive)

SMILES | EC50
CCOc1cc(/C=C2/C(=N)N3C=CSC3=NC2=O)ccc1OCCCOc1ccccc1C | 18 µM
c1ccc2c(CNc3ccc(CNc4ncn[nH]4)cc3)cccc2c1 | > 35 µM (inactive)
Cc1nc(NC(=O)CN2CCN(c3cccc(Cl)c3)CC2)sc1C(=O)N(C)C | > 35 µM (inactive)
Cc1ccc(OCC(O)CN2CCN(CCO)CC2)c(C)c1 (stereo not drawn) | > 35 µM (inactive)
CS(=O)(=O)c1ncc(Cl)c(C(=O)Nc2ccc(OC(F)F)cc2)n1 | > 35 µM (inactive)
C=CCNC(=O)c1ccccc1NC(=O)COc1ccccc1 | > 35 µM (inactive)
COCC(=O)NC(C)c1nc2ccccc2[nH]1 (stereo not drawn) | > 35 µM (inactive)
CC(C)(C)N(Cc1ccccc1)C(=O)COC(=O)CNC(=O)c1ccco1 | > 35 µM (inactive)
O=C(N/N=C\c1cccc(Cl)c1)c1ccc(Cn2cccn2)o1 | > 35 µM (inactive)
CN(CC(=O)Nc1cccc2ccccc12)C(=O)c1ccc(NC(=O)CC#N)cc1 | > 35 µM (inactive)
CC(C)c1ccc(NC(=S)NNC(=O)c2cccs2)cc1 | > 35 µM (inactive)
COc1cc2c(cc1OC)C(c1ccccc1Br)NC(=O)C2 (stereo not drawn) | > 35 µM (inactive)
CCOC(=O)/C=c1\s/c(=C\c2ccc(C#N)cc2)c(=O)n1CC(=O)Nc1cccc(C)c1C | 3.13 µM
COc1ccc(C(=O)Nc2ccc(S(=O)(=O)NC(C)=O)cc2)cc1[N+](=O)[O-] | > 35 µM (inactive)
O=C1/C(=C/c2ccc(N3CCOCC3)o2)SC(=Nc2ccccc2)N1CCc1c[nH]c2ccccc12 | 9.16 µM
CN(CC(=O)O)S(=O)(=O)c1ccc2oc3ccccc3c2c1 | > 35 µM (inactive)
CN(C)C=NC(=O)c1cc(C(=O)c2ccc(Cl)cc2Cl)c[nH]1 | > 35 µM (inactive)
Cc1ccc(Cl)cc1NC(=O)CC1NC2CCCCC2NC1=O (stereo not drawn) | > 35 µM (inactive)
CN(CCc1ccccc1)C(=O)c1cccc(NC(=O)Cc2cccc([N+](=O)[O-])c2)c1 | > 35 µM (inactive)
CN(C(=O)CSc1nnc(C(F)(F)F)n1N)C1CCS(=O)(=O)C1 (stereo not drawn) | > 35 µM (inactive)
COc1ccc(S(=O)(=O)N2CC(O)CC2C(=O)OCC(=O)Nc2ccc(Cl)cn2)cc1 (stereo not drawn) | > 35 µM (inactive)
COc1ccc(S(=O)(=O)N(CC(=O)NCCSc2ccccn2)c2ccccc2)cc1 | > 35 µM (inactive)
